# Measured values as given in BindingDB's records for doi:10.1016/j.bmcl.2003.08.070 (Wyeth Research, 2003).
# How the values were obtained:
# [1] = biological target: T1, Leukotriene B4 receptor 1 (Homo sapiens, UniProt Q15722); test: (§1) Inhibitory concentration against LTB4 receptor determined in human neutrophils PMN assay
# [2] = biological target: Leukotriene B4 receptor 1 (Mus musculus) (UniProt O88855); test: Inhibitory concentration against LTB4 receptor determined in mast cell line MC-9 assay
# Leukotriene B4 receptor 1 (Mus musculus), sequence (O88855 whole entry, looked up): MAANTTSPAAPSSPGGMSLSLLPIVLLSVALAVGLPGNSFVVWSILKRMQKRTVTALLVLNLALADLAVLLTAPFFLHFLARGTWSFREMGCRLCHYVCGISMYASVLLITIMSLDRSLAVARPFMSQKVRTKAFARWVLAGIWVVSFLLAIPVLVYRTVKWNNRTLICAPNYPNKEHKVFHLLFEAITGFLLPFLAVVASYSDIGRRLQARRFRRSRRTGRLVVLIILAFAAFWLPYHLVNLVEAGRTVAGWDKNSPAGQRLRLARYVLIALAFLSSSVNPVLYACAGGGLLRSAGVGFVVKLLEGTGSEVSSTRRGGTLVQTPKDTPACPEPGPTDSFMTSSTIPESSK
# [3] = biological target: T1, Leukotriene B4 receptor 1; test: ChEBML_99664; text: as §1
# T1 sequence (Q15722 whole entry): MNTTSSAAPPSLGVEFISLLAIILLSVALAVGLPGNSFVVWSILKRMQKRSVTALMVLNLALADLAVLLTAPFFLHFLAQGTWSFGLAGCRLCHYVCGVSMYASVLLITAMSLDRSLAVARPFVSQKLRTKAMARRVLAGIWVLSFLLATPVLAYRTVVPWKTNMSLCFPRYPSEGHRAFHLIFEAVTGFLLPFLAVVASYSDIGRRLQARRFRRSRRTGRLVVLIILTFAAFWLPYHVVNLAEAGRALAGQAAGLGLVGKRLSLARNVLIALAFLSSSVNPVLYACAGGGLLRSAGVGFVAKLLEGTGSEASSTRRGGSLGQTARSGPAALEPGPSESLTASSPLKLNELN
IC50 [1] [nM],IC50 [2] [nM],IC50 [3] [nM],SMILES
500,2800,,COc1cc(C(=O)O)ccc1Cc1cn(C(c2ccccc2)c2ccccc2)c2ccc([N+](=O)[O-])cc12 [4-(1-Benzhydryl-5-nitro-1H-indol-3-ylmethyl)-3-methoxy-benzoic acid]
,1100,400,COc1cc(C(=O)O)ccc1Cc1cn(C(c2ccccc2)c2ccccc2)c2ccc(Br)cc12 [4-(1-Benzhydryl-5-bromo-1H-indol-3-ylmethyl)-3-methoxy-benzoic acid]
400,,,COc1cc(C(=O)O)ccc1Cc1cn(C(c2ccccc2)c2ccccc2)c2ccc(C)cc12 [4-(1-Benzhydryl-5-methyl-1H-indol-3-ylmethyl)-3-methoxy-benzoic acid]
